Among the targets are Estrogen receptor beta (Homo sapiens, UniProt Q92731); Glucagon receptor (Homo sapiens, UniProt P47871); Substance-P receptor (Homo sapiens, UniProt P25103).
The target of test [1] is T1, Corticotropin-releasing factor receptor 1 (Homo sapiens, UniProt P34998).
T1 sequence (P34998 whole entry): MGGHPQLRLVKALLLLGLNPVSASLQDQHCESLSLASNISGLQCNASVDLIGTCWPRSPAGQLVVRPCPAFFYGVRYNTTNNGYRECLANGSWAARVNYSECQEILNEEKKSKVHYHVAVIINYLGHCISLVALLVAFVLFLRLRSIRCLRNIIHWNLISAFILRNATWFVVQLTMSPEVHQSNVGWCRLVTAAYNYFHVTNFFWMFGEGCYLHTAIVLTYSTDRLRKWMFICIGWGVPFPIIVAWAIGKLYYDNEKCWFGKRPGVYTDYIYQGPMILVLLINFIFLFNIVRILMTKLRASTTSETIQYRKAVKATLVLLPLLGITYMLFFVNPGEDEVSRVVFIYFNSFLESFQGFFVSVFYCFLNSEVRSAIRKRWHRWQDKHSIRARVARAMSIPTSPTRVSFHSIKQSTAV

Test [2] deals with T2, Corticotropin-releasing factor receptor 2 (Homo sapiens, UniProt Q13324).
T2 sequence (Q13324 whole entry): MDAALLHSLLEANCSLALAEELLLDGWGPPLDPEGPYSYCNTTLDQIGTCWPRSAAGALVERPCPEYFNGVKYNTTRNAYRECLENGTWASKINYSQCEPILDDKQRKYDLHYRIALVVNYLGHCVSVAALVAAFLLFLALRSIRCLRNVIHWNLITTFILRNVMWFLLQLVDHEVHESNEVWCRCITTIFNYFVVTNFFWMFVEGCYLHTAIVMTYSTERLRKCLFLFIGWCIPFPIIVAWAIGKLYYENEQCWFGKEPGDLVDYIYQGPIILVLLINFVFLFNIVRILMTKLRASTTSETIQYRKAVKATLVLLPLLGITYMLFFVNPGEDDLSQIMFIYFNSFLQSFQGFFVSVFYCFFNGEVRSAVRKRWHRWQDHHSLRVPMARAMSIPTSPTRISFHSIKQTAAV

The target in another test is T3, D(4) dopamine receptor (Homo sapiens, UniProt P21917).
T3 sequence (P21917 whole entry): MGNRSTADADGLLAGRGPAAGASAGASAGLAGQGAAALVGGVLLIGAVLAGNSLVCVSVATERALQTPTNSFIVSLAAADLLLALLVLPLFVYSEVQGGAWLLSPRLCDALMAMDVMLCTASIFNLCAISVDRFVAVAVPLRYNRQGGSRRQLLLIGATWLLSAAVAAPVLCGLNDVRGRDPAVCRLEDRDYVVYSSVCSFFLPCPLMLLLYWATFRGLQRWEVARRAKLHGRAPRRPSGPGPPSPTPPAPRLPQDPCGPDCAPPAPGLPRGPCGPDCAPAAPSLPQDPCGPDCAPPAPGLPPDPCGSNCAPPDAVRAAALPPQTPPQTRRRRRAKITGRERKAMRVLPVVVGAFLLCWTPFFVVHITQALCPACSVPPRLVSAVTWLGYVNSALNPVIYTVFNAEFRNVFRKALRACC

For test [3], the target named is T4, Endothelin receptor type B (Homo sapiens, UniProt P24530).
T4 sequence (P24530 whole entry): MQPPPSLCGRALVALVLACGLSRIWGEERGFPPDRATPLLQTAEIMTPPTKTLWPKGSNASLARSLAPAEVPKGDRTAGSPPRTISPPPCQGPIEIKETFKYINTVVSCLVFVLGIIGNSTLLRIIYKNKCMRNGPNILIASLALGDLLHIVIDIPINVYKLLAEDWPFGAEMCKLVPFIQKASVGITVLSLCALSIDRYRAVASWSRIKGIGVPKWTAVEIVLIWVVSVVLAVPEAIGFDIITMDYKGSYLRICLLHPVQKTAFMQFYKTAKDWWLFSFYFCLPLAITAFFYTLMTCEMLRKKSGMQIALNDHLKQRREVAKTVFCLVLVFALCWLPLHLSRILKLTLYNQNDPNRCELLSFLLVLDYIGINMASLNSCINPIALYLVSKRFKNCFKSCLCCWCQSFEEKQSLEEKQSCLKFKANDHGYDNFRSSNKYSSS

Test [4] addresses 5-hydroxytryptamine receptor 2B (Homo sapiens, UniProt P41595).
Test [5] concerns the target T5, Muscarinic acetylcholine receptor M1 (Homo sapiens, UniProt P11229).
T5 sequence (P11229 whole entry): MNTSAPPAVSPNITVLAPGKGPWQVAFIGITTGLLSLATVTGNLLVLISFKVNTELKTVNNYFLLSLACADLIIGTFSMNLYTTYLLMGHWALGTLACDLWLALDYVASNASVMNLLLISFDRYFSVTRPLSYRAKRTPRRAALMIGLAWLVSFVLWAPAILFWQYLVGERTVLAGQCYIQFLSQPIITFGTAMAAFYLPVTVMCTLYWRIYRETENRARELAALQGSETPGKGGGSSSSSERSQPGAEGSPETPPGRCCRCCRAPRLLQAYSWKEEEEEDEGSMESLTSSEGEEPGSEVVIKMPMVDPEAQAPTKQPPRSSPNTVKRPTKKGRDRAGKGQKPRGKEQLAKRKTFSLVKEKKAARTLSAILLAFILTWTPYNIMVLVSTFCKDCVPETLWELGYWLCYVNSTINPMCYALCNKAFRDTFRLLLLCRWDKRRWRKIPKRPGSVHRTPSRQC
The format is functional, cell-based.

Test [6] has as its target Gamma-aminobutyric acid receptor subunit alpha-1 (Rattus norvegicus, UniProt P62813).

The structures appear in SMILES notation. Where only a bound is given, the exact number is not on record here.
Further: assay procedure not described here.

Chain of Estrogen receptor beta (Q92731 whole entry): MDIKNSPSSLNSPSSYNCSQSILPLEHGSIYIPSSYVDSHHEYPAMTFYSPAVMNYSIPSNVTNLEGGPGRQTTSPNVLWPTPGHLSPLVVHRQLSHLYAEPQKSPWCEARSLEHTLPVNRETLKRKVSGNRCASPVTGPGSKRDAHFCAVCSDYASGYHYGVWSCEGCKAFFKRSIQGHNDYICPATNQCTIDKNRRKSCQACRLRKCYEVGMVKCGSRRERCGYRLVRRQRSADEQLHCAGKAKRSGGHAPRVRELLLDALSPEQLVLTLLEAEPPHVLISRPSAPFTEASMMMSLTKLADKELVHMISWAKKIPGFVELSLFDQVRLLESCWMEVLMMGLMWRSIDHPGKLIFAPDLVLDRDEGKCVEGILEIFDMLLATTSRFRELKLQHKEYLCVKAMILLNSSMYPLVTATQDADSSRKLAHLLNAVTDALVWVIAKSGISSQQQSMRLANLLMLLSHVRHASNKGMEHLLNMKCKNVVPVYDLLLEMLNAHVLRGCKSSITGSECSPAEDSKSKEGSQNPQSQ
Chain of 5-hydroxytryptamine receptor 2B (P41595 whole entry): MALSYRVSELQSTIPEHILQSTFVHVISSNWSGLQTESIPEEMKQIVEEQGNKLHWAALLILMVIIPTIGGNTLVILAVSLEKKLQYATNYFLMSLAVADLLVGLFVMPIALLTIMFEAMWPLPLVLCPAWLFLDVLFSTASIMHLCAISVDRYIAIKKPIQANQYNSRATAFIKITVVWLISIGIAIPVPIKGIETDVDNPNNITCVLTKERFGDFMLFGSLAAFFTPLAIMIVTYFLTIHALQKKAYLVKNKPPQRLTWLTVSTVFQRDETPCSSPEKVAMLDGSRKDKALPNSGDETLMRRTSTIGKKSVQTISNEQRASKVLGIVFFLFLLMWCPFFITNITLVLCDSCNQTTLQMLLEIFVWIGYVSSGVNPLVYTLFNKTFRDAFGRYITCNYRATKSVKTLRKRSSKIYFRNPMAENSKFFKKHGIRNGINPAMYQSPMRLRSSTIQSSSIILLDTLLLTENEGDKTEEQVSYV
Chain of Glucagon receptor (P47871 whole entry): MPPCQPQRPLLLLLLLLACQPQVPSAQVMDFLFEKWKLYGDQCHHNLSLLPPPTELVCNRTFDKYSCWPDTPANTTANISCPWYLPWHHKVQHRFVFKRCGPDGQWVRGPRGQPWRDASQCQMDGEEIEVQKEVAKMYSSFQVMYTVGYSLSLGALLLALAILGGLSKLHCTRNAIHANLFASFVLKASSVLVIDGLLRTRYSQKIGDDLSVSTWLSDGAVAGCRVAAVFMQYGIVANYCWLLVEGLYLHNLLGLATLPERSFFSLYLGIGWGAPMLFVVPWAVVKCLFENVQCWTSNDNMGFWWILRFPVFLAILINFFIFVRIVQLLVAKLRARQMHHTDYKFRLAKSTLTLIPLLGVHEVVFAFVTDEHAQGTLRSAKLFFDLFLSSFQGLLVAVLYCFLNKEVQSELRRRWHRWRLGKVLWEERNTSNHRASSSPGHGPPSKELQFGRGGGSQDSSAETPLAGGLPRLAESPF
Chain of Substance-P receptor (P25103 whole entry): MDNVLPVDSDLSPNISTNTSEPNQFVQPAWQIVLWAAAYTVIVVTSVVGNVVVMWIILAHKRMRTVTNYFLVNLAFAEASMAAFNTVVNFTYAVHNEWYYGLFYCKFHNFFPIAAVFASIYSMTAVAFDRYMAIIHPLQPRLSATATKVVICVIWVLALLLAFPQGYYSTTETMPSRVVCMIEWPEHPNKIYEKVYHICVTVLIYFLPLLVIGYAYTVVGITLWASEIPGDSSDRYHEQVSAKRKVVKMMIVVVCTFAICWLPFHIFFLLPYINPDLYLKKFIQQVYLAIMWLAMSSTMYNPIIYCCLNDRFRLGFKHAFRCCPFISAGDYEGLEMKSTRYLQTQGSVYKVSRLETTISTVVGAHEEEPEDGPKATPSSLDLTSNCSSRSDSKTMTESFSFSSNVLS
Chain of Gamma-aminobutyric acid receptor subunit alpha-1 (P62813 whole entry): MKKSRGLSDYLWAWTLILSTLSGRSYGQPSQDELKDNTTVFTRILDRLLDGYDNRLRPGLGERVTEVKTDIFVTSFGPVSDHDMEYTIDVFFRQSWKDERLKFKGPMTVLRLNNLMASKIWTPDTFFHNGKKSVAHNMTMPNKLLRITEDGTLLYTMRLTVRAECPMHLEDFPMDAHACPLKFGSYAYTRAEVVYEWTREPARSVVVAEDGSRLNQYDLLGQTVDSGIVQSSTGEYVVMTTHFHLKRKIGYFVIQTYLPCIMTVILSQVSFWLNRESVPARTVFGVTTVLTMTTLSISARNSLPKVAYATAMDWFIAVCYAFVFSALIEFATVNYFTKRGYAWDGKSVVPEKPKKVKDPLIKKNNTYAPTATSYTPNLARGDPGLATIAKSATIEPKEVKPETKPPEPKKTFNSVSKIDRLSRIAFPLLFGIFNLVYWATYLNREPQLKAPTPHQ

As usually defined, the AC50 is the concentration at which the activity in the assay is half-maximal. A higher AC50 goes with activity only at high concentration. In the case of `Nc1nc(N)c2nc(-c3ccccc3)c(N)nc2n1`, the AC50 in test [1] was over 30 µM; in test [2], over 30 µM; at D(4) dopamine receptor it was over 10 µM; in test [3] it was over 30 µM; at Estrogen receptor beta it was over 30 µM; on Glucagon receptor, over 30 µM. Besides, the AC50 (in test [4]; on Substance-P receptor) was over 10 µM in each case.
Turning to `Oc1ncnc2[nH]ncc12` [ALLOPURINOL], the AC50 in test [1] was over 30 µM; in test [2], over 30 µM; on D(4) dopamine receptor, over 10 µM; in [3], over 30 µM; on Estrogen receptor beta, over 30 µM; on Glucagon receptor, over 30 µM. Moreover, the AC50 (in [4]; at Substance-P receptor) was over 10 µM each time.
Consider `CC(C)NCC(O)COc1ccc(COCCOC(C)C)cc1` (stereo not given) [BISOPROLOL], for which the AC50 is over 30 µM in test [1]; over 30 µM in test [2]; over 10 µM at D(4) dopamine receptor; over 30 µM in test [3]; over 30 µM on Estrogen receptor beta; over 30 µM on Glucagon receptor. Further, the AC50 (in test [4]; on Substance-P receptor) was over 10 µM in each case.
With `COc1cc(Nc2c(C#N)cnc3cc(OCCCN4CCN(C)CC4)c(OC)cc23)c(Cl)cc1Cl` [BOSUTINIB], the AC50 in test [5] was over 3 µM; in test [1], over 30 µM; in test [2], over 30 µM; at D(4) dopamine receptor, over 10 µM; in test [3], over 30 µM; on Estrogen receptor beta, over 30 µM. The AC50 in test [6] was over 30 µM; at Glucagon receptor, over 30 µM; on Substance-P receptor, 8 µM.
For `CCC[C@@H]1C[C@@H](C(=O)N[C@@H]([C@H]2O[C@H](SC)[C@H](O)[C@@H](O)[C@H]2O)[C@H](C)Cl)N(C)C1` [CLINDAMYCIN], the AC50 was over 30 µM in [1]; over 30 µM in test [2]; over 10 µM at D(4) dopamine receptor; over 30 µM in test [3]; over 30 µM on Estrogen receptor beta; over 30 µM on Glucagon receptor. Besides, the concentration at half-maximal activity (AC50) (in test [4]; at Substance-P receptor) was over 10 µM each time.
With `COc1cc2c(cc1OC)C(=O)C(CC1CCN(Cc3ccccc3)CC1)C2` (stereo not given) [DONEPEZIL], the AC50 was 5.32 µM in test [5]; over 30 µM in test [1]; over 30 µM in test [2]; 0.824 µM at D(4) dopamine receptor; over 30 µM in test [3]; over 30 µM on Estrogen receptor beta. Further, the concentration at half-maximal activity (AC50) is over 30 µM on Glucagon receptor and over 10 µM on Substance-P receptor.
In the case of `NS(=O)(=O)c1cc2c(cc1Cl)NCNS2(=O)=O` [HYDROCHLOROTHIAZIDE], the AC50 in test [1] was over 30 µM; in test [2], over 30 µM; on D(4) dopamine receptor, over 10 µM; in test [3], over 30 µM; on Estrogen receptor beta it was over 30 µM; on Glucagon receptor it was over 30 µM. Further, the AC50 was 6.91 µM in test [4] and over 10 µM on Substance-P receptor.
Regarding `CCN(CC)CCNC(=O)c1cc(Cl)c(N)cc1OC` [METOCLOPRAMIDE], the half-maximal activity concentration (AC50) was over 30 µM in test [1]; over 30 µM in test [2]; 1.16 µM at D(4) dopamine receptor; over 30 µM in [3]; over 30 µM on Estrogen receptor beta; over 30 µM at Glucagon receptor. In addition, the concentration at half-maximal activity (AC50) in test [4] is 0.314 µM; on Substance-P receptor, over 10 µM.
On to `CCc1nn(CCCN2CCN(c3cccc(Cl)c3)CC2)c(=O)n1CCOc1ccccc1` [NEFAZODONE], for which the AC50 in [1] is over 30 µM; in test [2] it was over 30 µM; at D(4) dopamine receptor, 0.271 µM; in test [3], over 30 µM; at Estrogen receptor beta, over 30 µM; at Glucagon receptor it was over 30 µM. The AC50 in test [4] came to 0.084 µM; at Substance-P receptor, 2.45 µM.
As for `NC(=O)c1cnccn1` [PYRAZINAMIDE], the AC50 in test [1] was over 30 µM; in test [2], over 30 µM; on D(4) dopamine receptor it was over 10 µM; in test [3], over 30 µM; on Estrogen receptor beta, over 30 µM; at Glucagon receptor it was over 30 µM. In addition, the AC50 in [4] is over 10 µM.

For the origin of these results see ChEMBL document CHEMBL5291721, “A preclinical secondary pharmacology resource illuminates target-adverse drug reaction associations of marketed drugs” (Nat Commun, 2023).
